Where two headings read alike, the source gives them in different places. Square brackets hold non-standard residues; d marks the D form. Ends that are not written are not given here. Peptide text beside a SMILES is read from it. Nspe = C[C@H](NCC(=O)O)c1ccccc1; NhArg = N=C(N)NCCCCNCC(=O)O; Nphe = O=C(O)CNCc1ccccc1; Nlys = NCCCCNCC(=O)O
Columns and labels:
[1] = Skin cell toxicity assay with HaCaT (alamarBlue); format: cell-based, human; details: human, HaCaT cells (keratinocytes), ED50 HaCaT
Method: (§1) The activity of our peptoid library was assessed against both bacterial and mammalian cells to gain a broader understanding of the factors that lead to effective and selective antimicrobial peptoids. We screened for broad-spectrum antibacterial activity against Gram-negative (Escherichia coli and Pseudomonas aeruginosa) and Gram-positive (Staphylococcus aureus and S. epidermidis) bacteria. The toxicity of the library was also assessed against two mammalian cell lines; HaCaT spontaneously transformed aneuploid keratinocytes were employed to model toxicity against human skin cells and HepG2, a cell line derived from a human liver carcinoma, were used as a study on polarised human hepatocytes. Detailed methods for these assays can be found in the ESI. ^‡ […]
(§2) Please note – ED50, the median effective dose, was defined as the dose that kills 50% of cells.
(§3) Cytotoxicity analyses were performed in 96-well plates (Costar, Fisher Scientific) using alamarBlue® (Invitrogen) for cell viability detection using a modified protocol as described previously. HepG2 or HaCaT cells were subcultured at 37 °C, 5% CO2 in DMEM high glucose supplemented with heat-inactivated foetal bovine sera (FBS, 10%; Biosera Ltd) and penicillin/streptomycin (P/S, 1%). Cells were counted using a Neubauer Improved Haemocytometer. HepG2 cells were seeded 1 day prior to treatment in 96 well plates at a concentration of 2 × 10^5 cells per mL in 100 μL of medium (2 × 10^4 cells per well). Then cells were pre-incubated with the compounds in triplicate in a dilution series in triplicate from 2–100 μM (5 mM stock solutions in DMSO diluted from 100 μM to 3 μM; untreated cells with DMSO as a negative control) in 50 μl of the media for 1 hour. Afterwards, 40 μL were removed from each well before the addition of 90 μL of the media, followed by incubation for 24 hours at 37 °C, 5% CO2. Then, 10 μL of alamarBlue® (Invitrogen) was added to each well before a 2 hour incubation prior to assessing cell viability using a fluorescent plate reader (Biotek; Ex 560 nm/Em 600 nm). All data were measured in triplicate on a minimum of two occasions to ensure a robust data set was collected. The ED50 values were calculated from the dose response results achieved from the serial dilutions. […]
(§4) Cells were counted using a Neubauer Improved
(§5) Haemocytometer. […]
(§6) µM to 3 µM; untreated cells with DMSO as a negative control) in 50 µl of the media for 1 hour.
(§7) Afterwards, 40 µL were removed from each well before the addition of 90 µL of the media, followed by incubation for 24 hours at 37 °C, 5% CO2. Then, 10 µL of alamarBlue® (Invitrogen) was added to each well before a 2 hour incubation prior to assessing cell viability using a fluorescent plate reader (Biotek; Ex 560 nm / Em 600 nm). All data was measured in triplicate on a minimum of two occasions to ensure a robust data set was collected. The ED50 values were calculated from the dose response results achieved from the serial dilutions.
(§8) Skin Cell Toxicity assay with HaCaT […]
(§9) alamarBlue® (Invitrogen) for cell viability detection. HaCaT cells were subcultured at 37 °C, 5% CO2 in DMEM high glucose supplemented with heat-inactivated foetal bovine sera (FBS, 10%; Biosera Ltd) and penicillin/streptomycin (P/S, 1%). Cells were counted using a Neubauer Improved Haemocytometer. HaCaT cells were seeded in the plates 24 hours prior to treatment in 96 well plates at a concentration of 2x10^5 cells/mL in 100 µL of medium (2x10^4 cells/well).
(§10) Empty wells were filled with 100 µL PBS. After 24 hours, cells were incubated with the compounds in a dilution series in triplicate from 2 – 100 µM (5 mM stock solutions in DMSO diluted from 100 µM to 3 µM; Amphotericin B was used as a positive control and untreated cells with DMSO as a negative control) in 50 µL of the media for 1 hour. Afterwards, 40 µl was removed from each well, 90 µL of medium was added to each well and the cells incubated for 24 hours at 37 °C, 5% CO2. 10 µL of alamarBlue® (Invitrogen) was added to each well before […]

[2] = system: Escherichia coli K-12 wild-type strain (W3110/ATCC27325); format: cell-based; details: lowest concentration completely inhibiting growth, 37 °C, 16 h; range 2–100 μM
Method: (§11) Escherichia coli K-12 wild-type strain (W3110/ATCC27325, F^–, λ^–, rpoS(Am), rph-1, Inv(rrnD-rrnE)), Pseudomonas aeruginosa PA01 (ATCC 15692) Staphylococcus aureus (3R7089 strain Oxford/ATCC9144) and Staphylococcus epidermidis (laboratory strain from clinical isolate) were selected for bacteriological studies as representative Gram-negative (E. coli and P. aeruginosa) and Gram-positive (S. aureus and S. epidermidis) species. Bacterial cultures were prepared by streaking bacterial strains onto LB agar plates with an inoculation loop and incubated overnight at 37 °C. A single colony was selected and placed in 5 mL of Iso-sensitest broth (Oxoid, ThermoScientific) and incubated with shaking for 16–18 h at 37 °C to provide liquid cultures for testing.
(§12) MIC values were obtained according to the protocol described by J. M. Andrews et al.[58] and were conducted in 96-well plates (Sarstedt). Bacteria were grown from overnight cultures in Iso-sensitest broth to an A650nm of 0.07 equivalent to a 0.5 MacFarland standard (240 μM BaCl2 in 0.18 M H2SO4). This culture was diluted ten-fold with Iso-sensitest broth before use. Peptoids were initially dissolved in DMSO (5 mM) and diluted further in Iso-sensitest broth to achieve a concentration range of 4–200 μM using 2-fold serial dilutions. 50 μl of inoculum and 50 μl of peptoid solution were added to each test well (final concentration range of 2–100 μM). Experiments were performed in triplicate. A positive control for bacterial growth contained only the inoculum and Iso-sensitest broth. Other controls contained the inoculum and serial dilutions of ampicillin (from 250 μg mL^–1 to 2 μg mL^–1), serial dilutions of DMSO and the inoculum to confirm no inhibitory effect on bacterial growth, and Iso-sensitest broth alone as a sterile control. […] Quantitative data was attained from absorbance values using a Biotek Synergy H4 plate reader.
(§13) Antibacterial MIC determination
(§14) Escherichia coli K-12 wild-type strain (W3110 / ATCC27325, F-, λ-, rpoS(Am), rph-1, Inv(rrnD-rrnE)), Pseudomonas aeruginosa PA01 (ATCC 15692) Staphylococcus aureus (3R7089 strain Oxford / ATCC9144) and Staphylococcus epidermidis (laboratory strain from clinical isolate) were selected for bacteriological studies as representative Gram-negative (E. coli and P. aeruginosa) and Gram-positive (S. aureus and S. epidermidis) species. Bacterial cultures were prepared by streaking bacterial strains onto LB agar plates with an inoculation loop and incubated overnight at 37 °C.
(§15) A single colony was selected and placed in 5 mL of Iso-sensitest broth (Oxoid, ThermoScientific) and incubated with shaking for 16-18 h at 37 °C to provide liquid […]
(§16) MIC values were obtained according to the protocol described by J. M. Andrews et al.1 and were conducted in 96-well plates (Sarstedt). Bacteria were grown from overnight cultures in Iso-sensitest broth to an A650nm of 0.07 equivalent to a 0.5 MacFarland standard (240 μM BaCl2 in 0.18 M H2SO4). This culture was diluted ten-fold with Iso-sensitest broth before use. Peptoids were initially dissolved in DMSO (5 mM) and diluted further in Iso-sensitest broth to achieve a concentration range of 4 – 200 µM using 2-fold serial dilutions. 50 μl of inoculum and 50 μl of peptoid solution were added to each test well (final concentration range of 2 – 100 µM). Experiments were performed in triplicate. A positive control for bacterial growth contained only the inoculum and Iso-sensitest broth. Other controls contained the inoculum and serial dilutions of ampicillin (from 250 µg/mL to 2 µg/mL), serial dilutions of DMSO and the inoculum to confirm no inhibitory effect on bacterial growth, and Iso-sensitest broth alone as a sterile control. […]
(§17) growth after incubation at 37 °C for 16 h with shaking. Quantitative data was attained from absorbance values using a Biotek Synergy H4 plate reader.

[3] = system: Pseudomonas aeruginosa PA01 (ATCC 15692); format: cell-based; details: lowest concentration completely inhibiting growth, 37 °C, 16 h; range 2–100 μM
Method: as §11, §12, §13, §14, §15, §16, §17

[4] = system: Staphylococcus aureus (3R7089 strain Oxford/ATCC9144); format: cell-based; details: lowest concentration completely inhibiting growth, 37 °C, 16 h; range 2–100 μM
Method: as §11, §12, §13, §14, §15, §16, §17

HaCaT cells = assay: Skin cell toxicity assay with HaCaT (alamarBlue); format: cell-based, human; details: human, HaCaT cells (keratinocytes), 24 h
Method: as §1, §2, §3, §4, §5, §6, §7, §8, §9, §10

E. coli [5] = system: E. coli; design: method as in PMID 10681325, PMID 3299384; details: cited from earlier work
S. epidermidis = system: S. epidermidis; design: method as in PMID 10681325, PMID 3299384; details: cited from earlier work
S. aureus = system: S. aureus; design: method as in PMID 10681325, PMID 3299384; details: cited from earlier work
E. coli [6] = system: E. coli; design: method as in PMID 10681325; details: cited from earlier work
[7] = system: Staphylococcus epidermidis (laboratory strain from clinical isolate); format: cell-based; details: lowest concentration completely inhibiting growth, 37 °C, 16 h; range 2–100 μM
Method: as §11, §12, §13, §14, §15, §16, §17

| Compound | CC50 at 24 h [1] | MIC E. coli [2] | MIC P. aeruginosa [3] | MIC S. aureus [4] | ED50 HaCaT (HaCaT cells) | further results |
| --- | --- | --- | --- | --- | --- | --- |
| C[C@@H](c1ccccc1)N(CC(N)=O)C(=O)CN(C(=O)CN(CCCCN)C(=O)CN(C(=O)CN(C(=O)CN(CCCCNC(=N)N)C(=O)CN(C(=O)CN(C(=O)CN(CCCCN)C(=O)CN(C(=O)CN(C(=O)CNCCCCNC(=N)N)[C@@H](C)c1ccccc1)[C@@H](C)c1ccccc1)[C@@H](C)c1ccccc1)[C@@H](C)c1ccccc1)[C@@H](C)c1ccccc1)[C@@H](C)c1ccccc1)[C@@H](C)c1ccccc1 [Peptoid 44, [(NhArgNspeNspe)(NLysNspeNspe)]2] (H-[NhArg][Nspe][Nspe][Nlys][Nspe][Nspe][NhArg][Nspe][Nspe][Nlys][Nspe][Nspe]-NH2) | 33 µM | 17 µM | 67 µM | 17 µM | – | – |
| C[C@@H](c1ccccc1)N(CC(N)=O)C(=O)CN(C(=O)CN(CCCCNC(=N)N)C(=O)CN(C(=O)CN(C(=O)CN(CCCCNC(=N)N)C(=O)CN(C(=O)CN(C(=O)CN(CCCCN)C(=O)CN(C(=O)CN(C(=O)CNCCCCN)[C@@H](C)c1ccccc1)[C@@H](C)c1ccccc1)[C@@H](C)c1ccccc1)[C@@H](C)c1ccccc1)[C@@H](C)c1ccccc1)[C@@H](C)c1ccccc1)[C@@H](C)c1ccccc1 [Peptoid 41, (NLysNspeNspe)2(NhArgNspeNspe)2] (H-[Nlys][Nspe][Nspe][Nlys][Nspe][Nspe][NhArg][Nspe][Nspe][NhArg][Nspe][Nspe]-NH2) | 100 µM | 17 µM | 34 µM | 17 µM | >100 µM | – |
| Magainin 2 | – | – | – | – | – | MIC E. coli (E. coli [5]): 5 μg mL^–1; MIC E. coli (E. coli [5]; value in brackets, in μM): 2 µM; MIC S. epidermidis (S. epidermidis): 10 μg mL^–1; MIC S. epidermidis (S. epidermidis; value in brackets, in μM): 4 µM; MIC S. aureus (S. aureus): 50 μg mL^–1; MIC S. aureus (S. aureus; value in brackets, in μM): 20 µM |
| cecropin A (KWKLFKKIEKVGQNIRDGIIKAGPAVAVVGQATQIAK; ends and bridges not checked; UniProt P01507 27-63, looked up) [natural antimicrobial peptide (AMP) described in the literature] | – | – | – | – | – | concentration shown to kill 90% of E. coli (E. coli [6]): 2 µM |
| N=C(N)NCCCCNCC(=O)N(CC(=O)N(CC(=O)N(CCCCNC(=N)N)CC(=O)N(CC(=O)N(CC(=O)N(CCCCNC(=N)N)CC(=O)N(CC(=O)N(CC(=O)N(CCCCNC(=N)N)CC(=O)N(CC(=O)N(CC(N)=O)Cc1ccccc1)Cc1ccccc1)Cc1ccccc1)Cc1ccccc1)Cc1ccccc1)Cc1ccccc1)Cc1ccccc1)Cc1ccccc1 [Peptoid 33, (NhArgNpheNphe)4] (H-[NhArg][Nphe][Nphe][NhArg][Nphe][Nphe][NhArg][Nphe][Nphe][NhArg][Nphe][Nphe]-NH2) | 100 µM | 6 µM | 25 µM | – | >100 µM | MIC S. epidermidis [7]: 2 µM |

— article PMC6072100, “Exploring the links between peptoid antibacterial activity and toxicity” (MedChemComm, 2017)
